Test system: rat hippocampal slices
Assay: Reduction of azide-induced ischemic efflux of glutamate in rat hippocampal slices
Assay type: cell-based
Conditions: versus control, statistically significant, read-out: reduction of glutamate release (azide-induced ischemic efflux of glutamate)
Experimental: Adatanserin was evaluated for its ability to reduce the azide-induced ischemic efflux of glutamate in rat hippocampal slices. Three Krebs buffers were used in the experiments. Normal Krebs buffer consisted of a solution containing the following: (122 mM NaCl, 3 mM KCl, 24 mM NaHCO3, 10 mM glucose, 0.315 mM K2HPO4, 1.2 mM MgSO4, 4 mM CaCl2). Aglycemic Krebs buffer was similar to the normal buffer with the exception that glucose was not added. Ischemic Krebs buffer was the aglycemic solution which contained varying concentrations of sodium azide (0 - 30 mM).
Rat hippocampi were dissected on a cold platform and suspended in ice cold oxygenated normal Krebs buffer. The tissue was cross-chopped at 350 microns on a Mcllwain tissue chopper, then resuspended and washed three times with ice cold normal Krebs buffer. […] Amino acid concentrations were analyzed with reverse phase HPLC on a catacholamine column (Keystone Scinetific, 150 x 3 mm) employing an 0.05 M acetate/methanol gradient. […] Amino acids were visualized by derivatization with naphthalene-2,3-dicarboxaldehyde and fluorimetric detection (Dawson, L. A. et al., Improved Temporal Resolution of Microdialysis Measurement of Glutamate and Aspartate Using Capillary Electrophoresis with Laser Induced Fluorescence Detection. J. Chromatogr. B 1997, 694, 1204-1212). […]

O=C(NCCN1CCN(c2ncccn2)CC1)C12CC3CC(CC(C3)C1)C2 [adatanserin, N-[2-[4-(2-pyrimidinyl)-1-piperazinyl]ethyl]tricyclo[3.3.1.13,7]decane-1-carboxamide]
inhibition at 0.1 µM (adatanserin 100 nM): 72%
inhibition at 1 µM (adatanserin 1000 nM (1 µM)): 71%
